From patent publication US10738043B2, “GLS1 inhibitors for treating disease” (Board of Regents, The University of Texas System, priority 2015, dated 2020) come the findings set out here.

One assay relates to A549 cells. Description: Proliferation Assay (A549 viability, Cell Titer Fluor, 72 hours). The class given is cell-based. The following applies: read-out: EC50 against A549 cell proliferation. The procedure:
A549 cells were routinely maintained in RPMI 1640 media (Gibco catalog number 11875-093) supplemented with 10% dialyzed fetal bovine serum using a humidified incubator (37° C., 5% CO2 and ambient O2). In preparation for the viability assay, cells were inoculated into 384-well black CulturPlates (Perkin Elmer) at a density of 1000 cells/well in a volume of 40 μl. Following a 24-hour incubation at 37° C., 5% CO2 and ambient 02, cells were treated with compound (10 μl) in a final DMSO concentration of 0.5% (v/v). The microplates were then incubated for 72 hours (37° C., 5% CO2 and ambient O2). Cell Titer Fluor (Promega) was subsequently added (10 μl of 6× reagent) and mixed for 15 minutes at room temperature. The plates were then incubated for 30 minutes (37° C., 5% CO2 and ambient O2) and fluorescence was subsequently read on the Perkin Elmer Envision plate reader. EC50 values were calculated using a four-parameter logistic curve fit.

Assay [1] has as its target T1, GLS1 (purified recombinant human GAC) (Homo sapiens, UniProt O94925).
T1 sequence (O94925 55-598 isoform O94925-3 limits assumed): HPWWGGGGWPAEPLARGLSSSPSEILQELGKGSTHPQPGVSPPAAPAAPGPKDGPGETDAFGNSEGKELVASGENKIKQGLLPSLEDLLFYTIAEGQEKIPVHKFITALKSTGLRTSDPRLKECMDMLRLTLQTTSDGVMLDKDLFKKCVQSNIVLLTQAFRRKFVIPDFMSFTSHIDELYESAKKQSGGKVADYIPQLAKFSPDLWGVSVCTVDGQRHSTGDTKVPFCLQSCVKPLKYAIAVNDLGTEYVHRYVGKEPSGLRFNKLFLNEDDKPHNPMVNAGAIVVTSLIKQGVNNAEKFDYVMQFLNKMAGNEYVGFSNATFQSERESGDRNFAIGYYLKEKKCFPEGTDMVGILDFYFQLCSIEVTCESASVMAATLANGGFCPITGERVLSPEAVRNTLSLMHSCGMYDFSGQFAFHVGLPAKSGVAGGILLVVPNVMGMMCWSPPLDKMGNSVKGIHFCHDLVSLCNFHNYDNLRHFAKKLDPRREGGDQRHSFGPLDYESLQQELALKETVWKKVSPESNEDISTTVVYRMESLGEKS
Description: GLS1 Enzymatic Activity Assay (dual-coupled enzymatic assay). In kind it is biochemical. The conditions noted are these: 50 mM potassium phosphate, 1 mM glutamine, read-out: IC50 against GLS1. On the procedure:
GLS1 Enzymatic Activity Assay
The inhibition of purified recombinant human GAC by varying concentrations of inhibitors is assessed via a dual-coupled enzymatic assay. The glutamate produced by the glutaminase reaction is used by glutamate oxidase to produce α-ketoglutarate, ammonia, and hydrogen peroxide, with this hydrogen peroxide subsequently being used by horseradish peroxidase to produce resorufin in the presence of Amplex UltraRed. The assay buffer consisted of 50 mM HEPES (pH 7.4), 0.25 mM EDTA and 0.1 mM Triton X-100. GAC was incubated with potassium phosphate (10 minutes at room temperature) prior to incubation with inhibitor (10 minutes at room temperature). The final reaction conditions were as follows: 2 nM GAC, 50 mM potassium phosphate, 100 mU/ml glutamate oxidase (Sigma), 1 mM glutamine (Sigma), 100 mU/ml horseradish peroxidase (Sigma), 75 μM Amplex UltraRed (Life Technologies), and 1% (v/v) DMSO. The production of resorufin was monitored on a Perkin Elmer Envision plate reader (excitation 530 nm, emission 590 nm) either in a kinetics or endpoint mode (at 20 minutes). IC50 values were calculated using a four-parameter logistic curve fit.

Like-named read-outs stand apart in the source and are kept apart here.

For the compound “2-(2-phenylthiazol-4-yl)-N-(5-(1-(6-(2-(3-(trifluoromethoxy)phenyl)acetamido)pyridazin-3-yl)pyrrolidin-3-yl)-1,3,4-thiadiazol-2-yl)acetamide [Example 30]”, the EC50 with A549 cells was less than 0.1 µM. For the same compound, the IC50 in assay [1] is less than 0.1 µM.

Take “2-(thiazol-4-yl)-N-(5-(1-(6-(2-(3-(trifluoromethoxy)phenyl)acetamido)pyridazin-3-yl)pyrrolidin-3-yl)-1,3,4-thiadiazol-2-yl)acetamide [Example 31]”: the EC50 with A549 cells was in the range of 0.1 to 0.5 µM. In addition, in assay [1], the IC50 was less than 0.1 µM.

With `Nc1nnc(C2CCCN(c3ccc(NC(=O)Cc4ccccc4)nn3)C2)s1` (stereo not drawn) [Example 1, N-(6-(3-(5-Amino-1,3,4-thiadiazol-2-yl)piperidin-1-yl)pyridazin-3-yl)-2-phenylacetamide], the EC50 with A549 cells (Homo sapiens) lay within 0.5 to 5 µM. In assay [1], the IC50 lay in the range of 0.1 to 0.5 µM.

Consider `O=C(Cc1ccccc1)Nc1ccc(N2CCCC(c3nnc(NC(=O)Cc4ccccc4)s3)C2)nn1` (stereo not drawn) [Example 2, 2-Phenyl-N-(6-(3-(5-(2-phenylacetamido)-1,3,4-thiadiazol-2-yl)piperidin-1-yl)pyridazin-3-yl)acetamide], for which the EC50 in the assay on A549 cells (Homo sapiens) was in the range of 0.1 to 0.5 µM. For the same compound, in assay [1], the IC50 was less than 0.1 µM.

For the compound `O=C(Cc1ccccc1)Nc1ccc(N2CCCC(c3nnc(NC(=O)Cc4ccccn4)s3)C2)nn1` (stereo not drawn) [Example 3, 2-Phenyl-N-(6-(3-(5-(2-(pyridin-2-yl)acetamido)-1,3,4-thiadiazol-2-yl)piperidin-1-yl)pyridazin-3-yl)acetamide], the EC50 in the assay with A549 cells (Homo sapiens) lay in the range of 0.1 to 0.5 µM. For the same compound, in assay [1], the IC50 was less than 0.1 µM.

Regarding `CC(=O)Nc1nnc(C2CCCN(c3ccc(NC(=O)Cc4ccccc4)nn3)C2)s1` (stereo not drawn) [Example 4, N-(6-(3-(5-Acetamido-1,3,4-thiadiazol-2-yl)piperidin-1-yl)pyridazin-3-yl)-2-phenylacetamide], in the assay with A549 cells (Homo sapiens), the EC50 fell in the range of 0.5 to 5 µM. The IC50 in assay [1] lay in the range of 0.1 to 0.5 µM.

On to `O=C(Nc1ccc(N2CCC(n3cc(C(=O)NCc4ccccn4)nn3)C2)nn1)OCc1ccccc1` (stereo not drawn) [Example 5, Benzyl (6-(3-(4-((pyridin-2-ylmethyl)carbamoyl)-1H-1,2,3-triazol-1-yl)pyrrolidin-1-yl)pyridazin-3-yl)carbamate], for which the EC50 in the assay on A549 cells (Homo sapiens) was 0.5 to 5 µM. Moreover, the IC50 in assay [1] was 0.5 to 5 µM.

In the case of `CNC(=O)c1cn(C2CCN(c3ccc(NC(=O)Cc4cccc(OC(F)(F)F)c4)nn3)C2)nn1` (stereo not drawn) [Example 6, N-Methyl-1-(1-(6-(2-(3-(trifluoromethoxy)phenyl)acetamido)pyridazin-3-yl)pyrrolidin-3-yl)-1H-1,2,3-triazole-4-carboxamide], the EC50 with A549 cells (Homo sapiens) fell in the range of 0.5 to 5 µM. The IC50 in assay [1] is 0.1 to 0.5 µM.

Consider `O=C(Cc1cccc(OC(F)(F)F)c1)Nc1ccc(N2CCCC(n3cc(C(=O)NCc4ccccn4)nn3)C2)nn1` (stereo not drawn) [Example 7, N-(Pyridin-2-ylmethyl)-1-(1-(6-(2-(3-(trifluoromethoxy)phenyl)acetamido)pyridazin-3-yl)piperidin-3-yl)-1H-1,2,3-triazole-4-carboxamide], for which, in the assay with A549 cells (Homo sapiens), the EC50 was in the range of 0.5 to 5 µM. The IC50 in assay [1] was 0.1 to 0.5 µM.

For the compound `O=C(Cc1cccc(OC(F)(F)F)c1)Nc1ccc(N2CCC(n3cc(C(=O)NCc4ccccn4)nn3)C2)nn1` (stereo not drawn) [Example 8, N-(pyridin-2-ylmethyl)-1-(1-(6-(2-(3-(trifluoromethoxy)phenyl)acetamido)pyridazin-3-yl)pyrrolidin-3-yl)-1H-1,2,3-triazole-4-carboxamide], the EC50 in the assay on A549 cells (Homo sapiens) lay in the range of 0.5 to 5 µM. Further, the IC50 in assay [1] was in the range of 0.1 to 0.5 µM.

Take `O=C(Cc1ccccn1)Nc1ccc(N2CCC(c3nnc(NC(=O)Cc4ccccn4)s3)C2)nn1` (stereo not drawn) [Example 9, 2-(pyridin-2-yl)-N-(6-(3-(5-(2-(pyridin-2-yl)acetamido)-1,3,4-thiadiazol-2-yl)pyrrolidin-1-yl)pyridazin-3-yl)acetamide]: in the assay with A549 cells (Homo sapiens), the EC50 was 0.5 to 5 µM. In addition, the IC50 in assay [1] is less than 0.1 µM.

As to `CC(=O)Nc1cn(C2CCN(c3ccc(NC(=O)Cc4cccc(OC(F)(F)F)c4)nn3)C2)nn1` (stereo not drawn) [Example 11, N-(6-(3-(4-acetamido-1H-1,2,3-triazol-1-yl)pyrrolidin-1-yl)pyridazin-3-yl)-2-(3-(trifluoromethoxy)phenyl)acetamide], the EC50 with A549 cells (Homo sapiens) lay within 0.5 to 5 µM. Besides, the IC50 in assay [1] lay in the range of 0.1 to 0.5 µM.

In the case of `CC(=O)Nc1nnc(C2CCN(c3ccc(NC(=O)Cc4ccccn4)nn3)C2)s1` (stereo not drawn) [Example 12, N-(6-(3-(5-acetamido-1,3,4-thiadiazol-2-yl)pyrrolidin-1-yl)pyridazin-3-yl)-2-(pyridin-2-yl)acetamide], the half-inhibitory concentration (IC50) in assay [1] was in the range of 0.1 to 0.5 µM.

Turning to `Nc1nnc(C2CCCN(c3ccc(NC(=O)Cc4cccc(OC(F)(F)F)c4)nn3)C2)s1` (stereo not drawn) [Example 13, N-(6-(3-(5-amino-1,3,4-thiadiazol-2-yl)piperidin-1-yl)pyridazin-3-yl)-2-(3-(trifluoromethoxy)phenyl)acetamide], the EC50 in the assay on A549 cells (Homo sapiens) was in the range of 0.5 to 5 µM. In addition, the concentration for half-maximal inhibition (IC50) in assay [1] lay in the range of 0.1 to 0.5 µM.

For the compound `O=C(Cc1cccc(OC(F)(F)F)c1)Nc1ccc(N2CCCC(c3nnc(NC(=O)Cc4ccccn4)s3)C2)nn1` (stereo not drawn) [Example 14, 2-(pyridin-2-yl)-N-(5-(1-(6-(2-(3-(trifluoromethoxy)phenyl)acetamido)pyridazin-3-yl)piperidin-3-yl)-1,3,4-thiadiazol-2-yl)acetamide], the EC50 in the assay with A549 cells (Homo sapiens) is less than 0.1 µM. Also, the IC50 in assay [1] is less than 0.1 µM.

For `CC(=O)Nc1nnc(C2CCCN(c3ccc(NC(=O)Cc4cccc(OC(F)(F)F)c4)nn3)C2)s1` (stereo not drawn) [Example 15, N-(6-(3-(5-acetamido-1,3,4-thiadiazol-2-yl)piperidin-1-yl)pyridazin-3-yl)-2-(3-(trifluoromethoxy)phenyl)acetamide], the EC50 with A549 cells (Homo sapiens) lay within 0.1 to 0.5 µM. For the same compound, the IC50 in assay [1] was less than 0.1 µM.

With `Nc1nnc(C2CCCN(c3nnc(NC(=O)Cc4cccc(OC(F)(F)F)c4)s3)C2)s1` (stereo not drawn) [Example 16, N-(5-(3-(5-amino-1,3,4-thiadiazol-2-yl)piperidin-1-yl)-1,3,4-thiadiazol-2-yl)-2-(3-(trifluoromethoxy)phenyl)acetamide], the EC50 with A549 cells (Homo sapiens) was in the range of 0.5 to 5 µM. The IC50 in assay [1] was 0.1 to 0.5 µM.

Regarding `O=C(Cc1cccc(OC(F)(F)F)c1)Nc1ccc(N2CCC(c3nnc(NC(=O)Cc4ccccn4)s3)C2)nn1` (stereo not drawn) [Example 17, 2-(pyridin-2-yl)-N-(5-(1-(6-(2-(3-(trifluoromethoxy)phenyl)acetamido)pyridazin-3-yl)pyrrolidin-3-yl)-1,3,4-thiadiazol-2-yl)acetamide 2,2,2-trifluoroacetate], in the assay with A549 cells (Homo sapiens), the EC50 is less than 0.1 µM. For the same compound, the IC50 in assay [1] was less than 0.1 µM.

For `Cn1cc(CC(=O)Nc2nnc(C3CCN(c4ccc(NC(=O)Cc5cccc(OC(F)(F)F)c5)nn4)C3)s2)cn1` (stereo not drawn) [Example 18, 2-(1-methyl-1H-pyrazol-4-yl)-N-(5-(1-(6-(2-(3-(trifluoromethoxy)phenyl)acetamido)pyridazin-3-yl)pyrrolidin-3-yl)-1,3,4-thiadiazol-2-yl)acetamide 2,2,2-trifluoroacetate], the EC50 in the assay on A549 cells (Homo sapiens) lay within 0.1 to 0.5 µM. For the same compound, in assay [1], the IC50 is less than 0.1 µM.

`Nc1nnc(C2CCN(c3ccc(NC(=O)Cc4cccc(OC(F)(F)F)c4)nn3)C2)s1` (stereo not drawn) [Example 19, N-(6-(3-(5-amino-1,3,4-thiadiazol-2-yl)pyrrolidin-1-yl)pyridazin-3-yl)-2-(3-(trifluoromethoxy)phenyl)acetamide]: in the assay with A549 cells (Homo sapiens), the EC50 fell in the range of 0.5 to 5 µM. The IC50 in assay [1] is 0.1 to 0.5 µM.

As usually defined, the IC50 is the point on the concentration scale where inhibition reaches its midpoint.
